Results on one compound are retold here after patent publication US20220354818A1, “METHODS FOR TREATING BRAIN INJURY OR COGNITIVE DYSFUNCTION BY PHARMACOLOGICAL ENHANCMENT OF M-TYPE POTASSIUM ION CURRENTS IN NEURONS” (Advanced Neuroresearch Therapeutics LLC, priority 2019, published 2022).

Structures are written as SMILES.

What all share (assay type): in vivo, mouse
For experiment [1], the system named is mice subjected to CCCI, subthreshold pilocarpine. Description: Pilocarpine-induced seizure susceptibility after CCCI. Conditions: three subthreshold pilocarpine doses on fifth day after CCCI; RTG 1.2 mg/kg i.p. 30 min post-TBI. As for the experimental part:
Pilocarpine is a cholinomimetic drug widely used as a chemo-convulsant in animal models to induce status epilepticus. To minimize pilocarpine-induced peripheral cholinergic effects and mortality, animals were pretreated with scopolamine methyl nitrate (i.p. 1 mg/kg; MP Biomedicals) 30 minutes prior to pilocarpine injection. Both drugs were diluted in sterile 0.9% (w/v) saline. Immediately after pilocarpine injection, cortical activity was monitored for 24 hours by video/EEG recording.

For experiment [2], the system named is mice subjected to rbTBI. Description: Sleep-wake cycle analysis of EEG after rbTBI. Conditions: first week post-rbTBI. On the procedure: To study the sleep-wake cycle, video/EEG records from the first 72 hour long record session (starting 2 days after the last injury) and the last 48 hour long record session (9 months after the last injury) were analyzed. To select one EEG channel from each animal/session for further analysis, we performed visual inspections of the raw local field potentials and their time-frequency decompositions (spectrograms) recorded from the three electrodes. EEG channels with signal saturation and background noise or artifacts were discarded. Then, the EEG channel with the highest percentage power at the 5-12 Hz frequency band was used to classify the sleep-wake cycle. Awake state (WK), slow wave sleep (SWS), rapid eye movement sleep REM), and transition/undetermined states (US) were classified based on two power spectral ratios, as described by Gervasoni et al., Global Forebrain Dynamics Predict Rat Behavioral States and Their Transitions, J Neurosci 24(49): 11137-11147 (2004). In brief, it first measures the relative power within fast (0.5-20/0.5-50 Hz) and slow (0.5-4.5/0.5-9 Hz) frequency bands and then generates a 2 dimensional (2D) state-space on which clusters are manually selected and associated with each state of the sleep-wake cycle.

Experiment [3] deals with TAR DNA-binding protein 43 (TDP-43). The experiment is described as follows: TDP-43 immunoblotting and immunohistochemistry after rbTBI (CTE marker). As for the experimental part:
Levels of TDP-43 were first analyzed by immunoblotting experiments performed as previously described. Cortical and hippocampal samples were collected when the mice were 26-28 months of age.
Complementary to the immunoblot experiments, immunohistochemistry staining of TDP-43 was performed as previously described. Left hemisphere samples were removed and fixed overnight in 4% paraformaldehyde (Electron Microscopy Sciences). Subsequently, samples were transferred into 30% (w/v) sucrose in PBS and kept for 3 days at 4° C. before they were frozen in Tissue-Plus O.C.T. Compound (Fisher Scientific) using 2-methylbutane immersed in dry ice. Samples were stored at −80° C. until cross-sectioning.
20 μm thick coronal sections of the prefrontal cortex (PFC) were mounted on Superfrost Plus microscope slides (Fisher Scientific) previously coated with gelatin (Sigma). […] Images were taken in the PFC layer II at 40× magnification using an iXon ultra EMCCD Andor camera attached to a Nikon Eclipse TE2000-U microscope, with a fixed exposition time of 200 ms, in the 16-bit readout mode, with 2 MHz speed, and a pre-amplifier gain of 3. The mean and maximum fluorescence signal was obtained by automatic quantification with ImageJ (National Institutes of Health, USA). […]
Samples used in the immunoblotting and the immunohistochemistry experiments were from the EEG-monitored mice and from the above independent cohort. […]
(In general: A western blot detects proteins with antibodies after separation by electrophoresis.)

Experiment [4] relates to mice subjected to one blunt TBI, PTZ. The experiment is described as follows: Treatment window study: PTZ-induced seizure duration after one blunt TBI. As for the experimental part: Mice were video-EEG monitored for 24 hours after stimulation with a normally sub-seizure threshold dose of PTZ (35 mg/kg; s.c.) administered on the fifth day post-TBI, which caused the mice to respond with prolonged seizures. […] A TBI cohort (vehicle only) was also assessed for control purposes.

On to `CCOC(=O)Nc1ccc(NCc2ccc(F)cc2)cc1N` [RTG, 2-amino-4-(4-fluorobenzylamino)-1-ethoxycarbonylaminobenzene], for which the “pilocarpine-induced abnormal spike activity” value in experiment [1] is on record as “significant reduction of pilocarpine-induced abnormal spike activity”. In addition, the “percentage of time in awake state” value in experiment [2] is listed as “roughly equivalent to that experienced by the Sham group”. Also, in experiment [3] (2 years after TBIs, immunoblot and immunofluorescence), the “TDP-43 expression in the cerebral cortex” value is reported as “reduced TDP-43 as compared to the Blast cohort”. Further, the “phosphorylation levels of TDP-43” value in experiment [3] (cerebral cortex) is reported as “Neither TBI, nor RTG treatment, changed the phosphorylation levels of TDP-43”. Moreover, the PTZ-induced seizure duration result is recorded as “significantly reduced induced seizure duration” in experiment [4] (RTG 1 mg/kg i.p. at 1-hour post-TBI); “Lesser effects were observed” in experiment [4] (RTG 1 mg/kg i.p. at 2 hours and 6 hours post-TBI).
